Data set [1] deals with T1, Aurora kinase B (Homo sapiens, UniProt Q96GD4). Kind of data set: Inhibition of Aurora B kinase assessed as reduction in histone H3 phosphorylation in human HCT116 cells. The format is cell-based, HCT-116.
In data set [2] the target is T1, Aurora kinase B. Kind of data set: Binding affinity to Aurora B kinase catalytic domain by competitive binding assay.
The nature of data set [3]: Clearance in Sprague-Dawley rat at 1 mg/kg, iv. The format is ADME, organism-based. Set-up: dose 1 mg/kg, route intravenous. To be noted: in vivo.
The nature of data set [4]: Half life in Sprague-Dawley rat at 1 mg/kg, iv. Format: ADME, organism-based. The arrangement: dose 1 mg/kg, route intravenous. The settings on record: in vivo.
Data set [5] addresses T2, Aurora kinase C (Homo sapiens, UniProt Q9UQB9).
T2 sequence (Q9UQB9 whole entry): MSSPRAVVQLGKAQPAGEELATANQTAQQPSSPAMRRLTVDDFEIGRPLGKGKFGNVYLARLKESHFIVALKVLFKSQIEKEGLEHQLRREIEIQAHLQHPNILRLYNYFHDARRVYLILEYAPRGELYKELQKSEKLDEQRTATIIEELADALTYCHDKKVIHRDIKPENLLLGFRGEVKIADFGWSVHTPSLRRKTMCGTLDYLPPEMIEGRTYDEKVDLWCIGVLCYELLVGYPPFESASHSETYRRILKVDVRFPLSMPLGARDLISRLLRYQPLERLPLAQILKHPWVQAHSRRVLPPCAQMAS
Kind of data set: Binding affinity to Aurora C kinase catalytic domain by competitive binding assay.

A short description of data set [6]: AUC in Sprague-Dawley rat at 1 mg/kg, iv. Format: ADME, organism-based. The arrangement: dose 1 mg/kg, route intravenous. The settings on record: plasma.
Data set [7] concerns the target T3, Aurora kinase A (Homo sapiens, UniProt O14965).
T3 sequence (O14965 whole entry): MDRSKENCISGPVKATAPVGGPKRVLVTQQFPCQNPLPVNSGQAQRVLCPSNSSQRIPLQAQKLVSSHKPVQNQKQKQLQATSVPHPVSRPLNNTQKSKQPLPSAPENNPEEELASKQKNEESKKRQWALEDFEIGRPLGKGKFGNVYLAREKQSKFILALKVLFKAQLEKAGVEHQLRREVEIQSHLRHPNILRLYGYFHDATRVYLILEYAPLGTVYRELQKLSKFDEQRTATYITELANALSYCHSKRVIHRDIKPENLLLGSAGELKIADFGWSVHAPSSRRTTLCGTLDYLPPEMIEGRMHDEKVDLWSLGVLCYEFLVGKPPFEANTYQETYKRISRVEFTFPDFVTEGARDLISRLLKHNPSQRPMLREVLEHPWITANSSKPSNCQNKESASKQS
Kind of data set: Binding affinity to Aurora A kinase catalytic domain by competitive binding assay.

The test system of data set [8] is HCT-116. Kind of data set: Antiproliferative activity against human HCT116 cells. Format: functional, cell-based.
A short description of data set [9]: Volume of distribution in Sprague-Dawley rat at 1 mg/kg, iv. Format: ADME, organism-based. The settings on record: in vivo. The arrangement: dose 1 mg/kg, route intravenous.
Data set [10] has as its system Mus musculus. Kind of data set: Toxicity in nude mouse xenografted with human HCT116 cells assessed as body weight loss at 37.5 mg/kg, ip BID for 8 days. Format: organism-based, HCT-116. Set-up: dose 37.5 mg/kg, route intraperitoneal. The settings on record: in vivo, 192 h. For orientation: In xenograft studies the graft and the host belong to different species.
Data set [11] can be described thus: AUC in SCID mouse at 60 mg/kg, ip. Format: ADME, organism-based. The settings on record: plasma. The arrangement: dose 60 mg/kg, route intraperitoneal.
In data set [12] the test system is HCT-116. Kind of data set: Antitumor activity against human HCT116 cells xenografted in nude mouse assessed as tumor suppression dose administered intraperitoneally twice daily. The format is functional, cell-based.

Molecules are shown by their SMILES.

T1 sequence (Q96GD4 whole entry, the tested form may be a part): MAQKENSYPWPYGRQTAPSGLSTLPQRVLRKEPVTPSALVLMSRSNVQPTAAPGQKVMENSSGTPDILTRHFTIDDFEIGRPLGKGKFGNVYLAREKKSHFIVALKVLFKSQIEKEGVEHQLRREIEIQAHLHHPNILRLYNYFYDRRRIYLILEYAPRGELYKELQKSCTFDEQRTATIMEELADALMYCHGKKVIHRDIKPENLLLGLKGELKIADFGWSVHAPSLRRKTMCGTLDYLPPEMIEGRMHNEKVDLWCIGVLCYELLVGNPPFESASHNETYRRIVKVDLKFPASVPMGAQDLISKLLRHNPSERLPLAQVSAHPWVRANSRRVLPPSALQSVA

By IC50 is commonly meant the concentration needed to halve the response being measured. Broadly, the Kd is the constant that tells how readily two partners part at equilibrium. Low values mean higher affinity, high ones lower affinity. In general, clearance refers to the volume of plasma or blood freed of the substance per unit of time. The low end stands for inefficient removal, the high end for efficient removal. As usually defined, the half-life is how long it takes for the measured level to halve. Lower therefore signals fast loss. One may read the AUC as concentration integrated over time. The low end stands for less exposure, the high end for more exposure. For orientation: Vd means the apparent volume that relates the amount in the body to the concentration in plasma or blood. As to `Cc1cc(Nc2nc(Sc3ccc(NC(=O)C4CC4)cc3)nn3cc(NC(=O)N4CCN(C)CC4)cc23)n[nH]1`, the IC50 in [1] was 190 nM; in [8] it was 75 nM. Also, the Kd in data set [2] stood at 4 nM; in data set [5], 5 nM; in [7], 7 nM. The clearance in data set [3] was 53.3 mL/min/kg. This molecule also showed a half-life in data set [4] of 520 min. The molecule further returned an AUC in data set [6] of 0.757 µM·h. This molecule showed a Vd in data set [9] of 5.86 L/kg.

In the case of `Cc1cc(Nc2nc(Sc3ccc(NC(=O)CN4C[C@H](OC(C)(C)C)C[C@H]4CO)cc3)nn3cccc23)n[nH]1`, the concentration for half-maximal inhibition (IC50) in data set [1] is 15 nM; in data set [8], 8 nM. Besides, the results for the dissociation constant Kd in [2], in [5] and in data set [7] were 8 nM, 2 nM and 9 nM, respectively. Moreover, the clearance in data set [3] came to 52.2 mL/min/kg. This molecule had a half-life in data set [4] of 924 min. This molecule registered an exposure (AUC) in data set [6] of 0.581 µM·h. This molecule also yielded a Vd in [9] of 9.77 L/kg.

For the molecule `Cc1cc(Nc2nc(Sc3ccc(NC(=O)CN4C[C@H](Oc5ccc(F)cc5)[C@@H](O)C4)cc3)nn3cccc23)n[nH]1`, the concentration for half-maximal inhibition (IC50) in [1] amounted to 44 nM; in data set [8], 5 nM. For the same molecule, the Activity in data set [10] was above 20%; in data set [12], “Dose-dependent effect”. For the same molecule, the values for the equilibrium dissociation constant (Kd) in data set [2] and in data set [7] were 8 nM and 15 nM, respectively. Also, the clearance in [3] was 25.2 mL/min/kg. Moreover, in [4], the half-life was 202 min. In addition, the AUC was 47.5 µM·h in data set [11] and 1.17 µM·h in data set [6]. The Vd in data set [9] was found to be 2.93 L/kg.

On to `Cc1cc(Nc2nc(Sc3ccc(NC(=O)C4CC4)cc3)nn3cccc23)n[nH]1`, for which the figures for the IC50 in data set [1] and in data set [8] were 431 nM and 345 nM, respectively. Also, the values for the equilibrium dissociation constant (Kd) in data set [2], in data set [5] and in [7] were 20 nM, 4 nM and 12 nM, respectively. The clearance in data set [3] was found to be 28.5 mL/min/kg. The same molecule gave a half-life in data set [4] of 648 min. The AUC in data set [6] was 2.34 µM·h. The molecule also came in with a Vd in data set [9] of 2.15 L/kg.

On to `Cc1cc(Nc2nc(Sc3ccc(NC(=O)CN4C[C@H](OC(C)(C)C)[C@@H](O)C4)cc3)nn3cccc23)n[nH]1`, for which the half-inhibitory concentration (IC50) was 16 nM in data set [1] and 4 nM in data set [8]. Further, the values for the dissociation constant Kd in data set [2] and in [7] were 5 nM and 12 nM, respectively. The molecule further came in with a clearance in [3] of 45 mL/min/kg. For the same molecule, the half-life in data set [4] was 672 min. Moreover, the exposure (AUC) in [6] worked out at 0.644 µM·h. In data set [9], this molecule yielded a distribution volume (Vd) of 18.3 L/kg.

(Values after ChEMBL document CHEMBL1821662 (Bioorg Med Chem Lett, 2011).)
